# Measurements taken from patent publication US20240181015A1, “EFFECT OF GHRH ANTAGONISTS IN DIABETES AND OBESITY” (AUGUSTA UNIVERSITY RESEARCH INSTITUTE, INC., priority 2021, published 2024).
# Ends that are not written are not given here.
# Experiments:
# [1] = test system: wild type mice fed on high fat diet (HFD); assay: Postprandial triglyceride plasma levels after oral lipid loading in high fat diet fed mice; assay type: in vivo; conditions: HFD 16 weeks, 25 μg/kg/day subcutaneous every other day for last 4 weeks, up to 2 hours after oral lipid loading
# Text: Both 8-week old wild type mice with intact ghrhr gene, and ghrhr conditional knock out mice were fed a high fat or control diet for 16 weeks. The effect of selective deletion of the ghrhr gene in the small intestine versus the effect of the GHRH antagonist AVR-352 or vehicle treatment for the last 4 weeks in wild type mice when both groups were fed a high fat diet, on fasting and postprandial triglyceride plasma levels were compared. The Ghrhr floxed mice using embryonic ES Cells was generated (International Mouse Phenotyping Consortium—IMPC). The ES cell clones were targeted with a floxed allele of Ghrhr with exons 2-5 flanked by loxP sites, and were injected into C57BL/6-Albino blastocysts for chimera production and generation of Ghrhr flox/wt mice (Animal Models Core, UNC, Project ID: Ex231). The colony was expanded and obtained the homozygous Ghrhr flox/flox mice, which were cross bred with mice expressing Cre recombinase in the small intestine (B6.Cg-Tg(Vil1-cre) 1000 Gum/J, Jackson Laboratories). Recombinase activity results in the deletion of loxP flanked targets in the intestine.
# Mice with the deletion of GHRH receptor in small intestine epithelium (HOMO) were fed on high fat diet (HFD) or control diet (Ctrl diet) for 16 weeks. AVR-352 (25 μg/kg/day, subcutaneous, every other day), was given to wild type mice after 12 weeks of high fat diet (HFD) for 4 weeks.
# [2] = test system: diet-induced obesity (DIO) C57BL/6 mice; assay: Fasting triglyceride levels in diet-induced obesity (DIO) C57BL/6 mice; assay type: in vivo; conditions: HFD 24 weeks; 25 μg/kg/day subcutaneous for last 12 weeks; vs untreated HFD mice
# Protocol: C57BL/6 mice, 12 weeks of age were fed on a normal control diet (CD) or diet supplemented with high levels of fat (HFD) for 12 weeks, before treatment with GHRH antagonist, AVR-352 (25 μg/kg/day, subcutaneous) or vehicle for 12 weeks. Total triglycerides in plasma (TG ELISA kit, MyBioSource) were measured.
# [3] = test system: wild type mice fed on high fat diet (HFD); assay: ApoB-48 and MTTP protein content in scrapped small intestine epithelium of HFD mice; assay type: in vivo; conditions: 25 μg/kg/day subcutaneous every other day for 4 weeks, vs untreated HFD mice
# Protocol: The protein expression of microsomal triglyceride transfer protein (MTTP), an enzyme involved in ApoB-48 lipoprotein assembly, in protein extracts isolated from scrapped epithelium of whole small intestine of mice were evaluated. Densitometric analysis (optical density O.D., fold over Ctrl diet fed mice) of ApoB-48 (FIG. 11B) and MTTP ([…]) corrected by protein loading (vinculin) (FIG. 11A) was performed. Mice fed on HFD were treated with GHRH antagonist AVR-352 (Antago, 25 μg/kg/day, subcutaneous, every other day for 4 weeks).
# [4] = test system: C57BL/6 wild type male mice fed on high fat diet (HFD); assay: CLAMS (body weight gain, activity-ambient) in HFD mice treated with AVR-352; assay type: in vivo; conditions: HFD 12 weeks, then 25 μg/kg/day subcutaneous for 4 weeks, vs untreated HFD mice
# Protocol: 8 to 10-Week old C57BL/6 wild type male mice were fed on a high fat diet (HFD) for 12-weeks. Mice were then treated with the GHRH antagonist AVR-352 (25 μg/kg/day, subcutaneous) or vehicle for 4-weeks. At the end of treatment, mice were placed individually in metabolic (CLAMS) system. Body weight was recorded at beginning of treatment and at time of CLAMS after 4-weeks of treatment with the GHRH antagonist AVR-352 or vehicle. Activity-ambient (counts/day) was also measured.
# db/db mice [5] = assay: Fasting plasma triglycerides, ApoB-48 and VLDL (ELISA) in db/db mice treated with MIA-602; assay type: in vivo; conditions: fasting state, 25 μg/kg/day subcutaneous every other day for 4 weeks, vs untreated db/db mice
# Protocol: Obese 20-week old male diabetic (db/db) mice were treated with the GHRH antagonist MIA-602 (25 μg/kg/day, subcutaneous, every other day) or vehicle (untreated, n=6/group) for 4 weeks. Total triglycerides (mg/dl), ApoB-48-containing lipoproteins (ApoB-48, ng/ml), and very low density lipoprotein (VLDL, mg/dl) in plasma obtained from mice in the fasting state were measured by ELISA (MyBioSource).
# Given the high incidence of T2D and obesity and its association with CVD, experiments were carried out to investigate whether GHRH receptor antagonist MIA-602 administered subcutaneous suppresses elevation of TRL in mice homozygous for the diabetes spontaneous mutation Leprdb-BKS db (db/db), a valid model of human T2D/obesity. Heterozygous for Leprdb were used as lean controls.
# GHRH antagonist MIA-602 (25 μg/kg/day, subcutaneous, every other day), was given to a sub-group of 20 weeks old db/db mice for 4 weeks. FIGS. 2A-2C show the effect of the treatment with MIA-602 on triglycerides, ApoB-48, and very low density lipoprotein (VLDL) levels, respectively, in db/db mice.
# db/db mice [6] = assay: MTTP activity and ApoB-48 protein expression in jejunum protein extracts of db/db mice; assay type: in vivo; conditions: protein extracts from jejunum of db/db mice, 25 μg/kg/day s.c.
# Protocol: Protein extracts were isolated from jejunum of diabetic (db/db) mice and lean control mice. Microsomal triglyceride transfer protein (MTTP) activity (pmole/μg protein/hour) was measured in protein extracts from diabetic (db/db) mice versus lean control mice treated or not with GHRH antagonist MIA-602. Further, ApoB-48 protein expression determined by densitometric analysis (optical density, O.D.) of ApoB-48 corrected by protein loading (vinculin) was also performed in protein extracts from diabetic (db/db) mice versus lean control mice treated or not with GHRH antagonist MIA-602.
# db/db mice [7] = assay: Fasting blood glucose, HbA1c and glucagon in db/db mice; assay type: in vivo; conditions: 25 μg/kg/day subcutaneous for 12 weeks, vs untreated db/db mice
# Protocol: Male db/db mice, 12 weeks of age were treated with the GHRH antagonist MIA-602 (25 μg/kg/day, subcutaneous, n=6) or vehicle (untreated, n=6/group) for 12 weeks. Samples were obtained from tail bleeding to determine (A) Fasting blood glucose (AlphaTRAK), (B) HbA1c (Crystal Chem) and (C) Glucagon.
# [8] = test system: C57BL/6 male mice fed on high fat diet (HFD); assay: CLAMS (food intake, body weight gain, activity-ambient, RER) in HFD mice treated with MIA-602; assay type: in vivo; conditions: HFD 24 weeks, 25 μg/kg/day subcutaneous for last 12 weeks
# Protocol: 12-Week old C57BL/6 male mice were fed on a high fat diet (HFD) or control diet (CD) for 12-weeks. Mice fed on HFD were treated with the GHRH antagonist MIA-602 (25 μg/kg/day, subcutaneous) or vehicle for 12-weeks. At the end of treatment, mice were placed individually in metabolic (CLAMS) system and a) food intake, b) body weight gain, c) activity-ambient, and d) respiratory exchange ratio were measured.
# [9] = test system: human small intestine epithelial cells (hulECs); assay: ApoB-48 secretion by huIEC loaded with oleic acid; assay type: cell-based
# Protocol: FIG. 14 is a bar graph showing confluent monolayers of human small intestine epithelial cells (hulECs, ATCC) were cultured in 6-well plates and loaded or not with oleic acid after treatments. ApoB-48 was measured in culture supernatants. GHRH agonist JI-34 (1 μM, 1 h) impaired the actions of the GLP-1 receptor agonist exendin 4 (Ex-4, 10 nM, 2 h) on reducing the ApoB48 secretion upon loading hulEC with oleic acid (0.5 mM, 3 h). This effect was completely blunted by co-treatment of cells with the GHRH antagonist MIA-602 (1 μM, 1 h).
# FIG. 15 is a bar graph showing confluent monolayers of human small intestine epithelial cells (hulECs, ATCC) were cultured in 6-well plates and loaded or not with oleic acid after treatments. ApoB-48 was measured in culture supernatants.
# Confluent monolayers of human small intestine epithelial cells (hulECs, ATCC) were cultured in 6-well plates and were either loaded with oleic acid or not loaded with oleic acid after treatment. ApoB-48 was measured in culture supernatants (MyBioSource).
# [10] = test system: rat small intestine epithelial cells (IEC); conditions: U.S. Pat. No. 10,201,588; cited from earlier work
# STZ-rats = STZ-rats (T1D model); U.S. Pat. No. 10,201,588; cited from earlier work
substance,measurement,setting,value
5FPhAC-Ada-Tyr-DArg-Asp-Ala-Ile-5FPhe-Thr-Ala-Har-Tyr(Me)-Arg-Lys-Val-Leu-Abu-Gln-Leu-Ser-Ala-Arg-Lys-Leu-Leu-Gln-Asp-Ile-Nle-DArg-Har-Ada-NH2 [AVR-352],postprandial increase of triglyceride plasma levels,[1],significantly blunted
same,fasting total triglycerides in plasma,[2],significantly reduced
same,ApoB-48 protein content in small intestine epithelium,[3],significant reduction
same,MTTP protein content in small intestine epithelium,[3],without significantly affecting
same,"daily activity-ambient, dark cycle",[4]; dark cycle,significantly higher
same,"daily activity-ambient, light cycle",[4]; light cycle,no significant differences
same,body weight gain (%),[4],significantly lower
Tyr-Ala-Asp-Ala-Ile^5-Phe-Thr-Asn-Ser-Tyr^10-Arg-Lys-Val-Leu-Gly^15-Gln-Leu-Ser-Ala-Arg^20-Lys-Leu-Leu-Gln-Asp^25-Ile-Met-Ser-Arg^29-NH2 [MIA-602],ApoB-48-containing lipoproteins in plasma,db/db mice [5],significantly reduced
same,total triglycerides in plasma,db/db mice [5],significantly reduced
same,very low density lipoprotein (VLDL) in plasma,db/db mice [5],significantly reduced
same,microsomal triglyceride transfer protein (MTTP) activity,db/db mice [6],not associated with significant changes
same,"ApoB-48 levels (densitometry, corrected by vinculin)",db/db mice [6]; vs untreated,significantly lower levels
same,fasting blood glucose level,db/db mice [7],modest but significant reduction
same,glucagon levels,db/db mice [7],significant reduction
same,hemoglobin A1c (HbA1c) level,db/db mice [7],modest but significant reduction
same,respiratory exchange ratio (RER),[8]; vs non-treated mice,slightly but significantly lower
same,body weight gain,[8]; vs untreated HFD mice,significant reduction
same,daily activity-ambient,[8]; vs untreated HFD mice,significant increase
same,food intake,[8]; vs untreated HFD mice,No changes
same,impaired signaling of Ex-4 in the presence of JI-34 (ApoB-48 secretion),"[9]; MIA-602 1 μM, 1 h co-treatment with JI-34 1 μM and Ex-4 10 nM",completely restored
same,ApoB-48 lipoproteins in rat IEC in vitro,[10],reduced
same,ApoB-48 lipoproteins in STZ-rats,STZ-rats,reduced
"GHRH: native growth hormone releasing hormone, the naturally occurring ligand of GHRH receptor (YADAIFTNSYRKVLGQLSARKLLQDIMSRQQGESNQERGARARL; ends and bridges not checked; UniProt P01286 32-75, looked up) [reference compound]","ApoB-48 released in the culture medium, different concentrations",[9]; different concentrations of native GHRH,increased levels of ApoB-48 were released in the culture medium in a dose-dependent manner
